Assay [1] has as its target GST-tagged KRAS-G12D (2-169) (Homo sapiens, UniProt P01116, G12D). The experiment in a line: Nucleotide exchange assay (NEA), SOS-mediated, HTRF, KRAS G12D. It is filed as biochemical. Particulars: Table 4; IC50 extracted at 30 min; 20 nM SOScat; read-out: NEA G12D IC50. Summed up:
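SOS1cat-driven loading of fluorescent GTP-DY-647P1 (150 nM) onto GST-KRAS-G12D (2-169, 0.25 nM) read by time-resolved FRET; SOScat 20 nM, compound preincubated with KRAS 1 h at RT. Signal blanked to no-SOS reactions, normalized to DMSO; IC50 fitted from the 30-min read.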

In assay [2] the target is GST-tagged KRAS-G12V (2-169) (Homo sapiens, UniProt P01116, G12V). The experiment in a line: Nucleotide exchange assay (NEA), SOS-mediated, HTRF, KRAS G12V. The assay is classed as biochemical. Particulars: Table 4; IC50 extracted at 90 min; 80 nM SOS. The method, boiled down: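 Exchange onto fluorescent GTP-DY-647P1 (150 nM final) catalysed by 80 nM SOS1cat was followed by Tb-anti-GST HTRF at RT for up to 90 min, after 1 h compound pre-incubation with 0.25 nM GST-tagged KRAS-G12V (2-169), pH 7.3. DMSO = 0%, no-SOS blank = 100%; 4-parameter IC50 taken at 90 min.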
Chain of GST-tagged KRAS-G12V (2-169) (P01116 2-169 isoform P01116-2 G12V): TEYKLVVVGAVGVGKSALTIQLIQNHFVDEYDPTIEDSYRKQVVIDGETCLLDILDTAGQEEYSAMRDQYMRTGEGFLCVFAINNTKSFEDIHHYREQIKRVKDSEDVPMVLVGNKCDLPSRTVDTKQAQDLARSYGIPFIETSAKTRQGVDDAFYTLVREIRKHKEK
On the technique in general: Time-resolved FRET reads energy transfer from a long-lived donor to a nearby acceptor.

Assay [3] relates to phospho-ERK in GP2D (KRAS-G12D) cells. Nature of the assay: pERK In Cell Western (ICW) assay (Method B), GP2D. It is filed as cell-based. Particulars: GP2d, 3 h, Table 4. Summed up: (§1)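 After overnight attachment, cells received nine half-log compound concentrations for 3 hours, were fixed, permeabilized and probed with phospho-ERK antibody plus DRAQ5. Normalized pERK signal versus blank control yields IC50 via variable-slope four-parameter fit.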

The subject of assay [4] is phospho-ERK in SW620 (KRAS-G12V) cells. Nature of the assay: pERK In Cell Western (ICW) assay (Method B), SW620. The assay is classed as cell-based. Particulars: Homo sapiens, SW-620, 3 h, Table 4. The method, boiled down:
as §1

The IC50 is the concentration at which inhibition is half-maximal.

Chain of GST-tagged KRAS-G12D (2-169) (P01116 2-169 isoform P01116-2 G12D): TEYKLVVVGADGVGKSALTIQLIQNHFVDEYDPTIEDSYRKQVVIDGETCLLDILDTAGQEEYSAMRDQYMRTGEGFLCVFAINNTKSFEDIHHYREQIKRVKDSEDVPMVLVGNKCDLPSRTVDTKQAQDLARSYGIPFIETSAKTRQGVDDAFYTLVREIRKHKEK

Regarding `CC(c1ccc(F)nc1N)N(C)c1nc(OC[C@@]23CCCN2C[C@H](F)C3)nc(N2CC3(CCc4sc(N)c(C#N)c43)C2)n1` (stereo partly drawn) [Compound 162, 2-amino-1′-[4-[1-(2-amino-6-fluoro-3-pyridyl)ethyl-methyl-amino]-6-[[(2R,8S)-2-fluoro-1,2,3,5,6,7-hexahydropyrrolizin-8-yl]methoxy]-1,3,5-triazin-2-yl]spiro[5,6-dihydrocyclopenta[b]thiophene-4,3′-azetidine]-3-carbonitrile], the concentration for half-maximal inhibition (IC50) in assay [1] was 10 to 100 nM; in assay [2] it was < 10 nM; in assay [3] it was 100 to 1000 nM; in assay [4], 10 to 100 nM.
Consider `C[C@H](c1cccnc1N)N(C)c1nc(OC[C@@]23CCCN2C[C@H](F)C3)nc(N2CC3(CCCc4sc(N)c(C#N)c43)C2)n1` [Compound 163, 2-amino-1′-[4-[[(1R)-1-(2-amino-3-pyridyl)ethyl]-methyl-amino]-6-[[(2R,8S)-2-fluoro-1,2,3,5,6,7-hexahydropyrrolizin-8-yl]methoxy]-1,3,5-triazin-2-yl]spiro[6,7-dihydro-5H-benzothiophene-4,3′-azetidine]-3-carbonitrile], for which the IC50 in assay [1], in assay [2], in assay [3] and in assay [4] was < 10 nM each time.
Regarding `CN(Cc1nsnc1N)c1nc(OC[C@@]23CCCN2C[C@H](F)C3)nc(N2CC3(CCc4sc(N)c(C#N)c43)C2)n1` [Compound 166, 2-amino-1′-[4-[(4-amino-1,2,5-thiadiazol-3-yl)methyl-methyl-amino]-6-[[(2R,8S)-2-fluoro-1,2,3,5,6,7-hexahydropyrrolizin-8-yl]methoxy]-1,3,5-triazin-2-yl]spiro[5,6-dihydrocyclopenta[b]thiophene-4,3′-azetidine]-3-carbonitrile], the IC50 in assay [1] is 10 to 100 nM; in assay [2], < 10 nM; in assay [3] it was 100 to 1000 nM; in assay [4], 10 to 100 nM.
In the case of `N#Cc1c(N)sc2c1C1(CN(c3nc(OCC4(CN5CCOCC5)CC4)nc(N4C[C@H]5CC[C@@H](C4)N5)n3)C1)SC2` [Compound 167, 1-(4-((1R,5S)-3,8-diazabicyclo[3.2.1]octan-3-yl)-6-((1-(morpholinomethyl)cyclopropyl)methoxy)-1,3,5-triazin-2-yl)-2′-amino-6′H-spiro[azetidine-3,4′-thieno[3,4-b]thiophene]-3′-carbonitrile], the IC50 is < 10 nM in assay [1], 10 to 100 nM in assay [2], < 10 nM in assay [3] and 1000 to 20000 nM in assay [4].
On to `N#Cc1c(N)sc2c1C1(CN(c3nc(OC[C@@]45CCCN4C[C@H](F)C5)nc(Oc4ccnnc4)n3)C1)SC2` [Compound 169, 2-amino-1′-[4-[[(2R,8S)-2-fluoro-1,2,3,5,6,7-hexahydropyrrolizin-8-yl]methoxy]-6-pyridazin-4-yloxy-1,3,5-triazin-2-yl]spiro[6H-thieno[2,3-c]thiophene-4,3′-azetidine]-3-carbonitrile], for which the IC50 in assay [1] lay within 1000 to 20000 nM; in assay [2] it was 100 to 1000 nM; in assay [3], 1000 to 20000 nM; in assay [4] it was 1000 to 20000 nM.
For the compound `CC(c1nsnc1N)N(C)c1nc(OC[C@@]23CCCN2C[C@H](F)C3)nc(N2CC3(CCc4sc(N)c(C#N)c43)C2)n1` (stereo partly drawn) [Compound 170, -amino-1′-[4-[1-(4-amino-1,2,5-thiadiazol-3-yl)ethyl-methyl-amino]-6-[[(2R,8S)-2-fluoro-1,2,3,5,6,7-hexahydropyrrolizin-8-yl]methoxy]-1,3,5-triazin-2-yl]spiro[5,6-dihydrocyclopenta[b]thiophene-4,3′-azetidine]-3-carbonitrile], the concentration for half-maximal inhibition (IC50) was 10 to 100 nM in assay [1], < 10 nM in assay [2], 100 to 1000 nM in assay [3] and 10 to 100 nM in assay [4].
In the case of `CCN(c1nc(OC[C@@]23CCCN2C[C@H](F)C3)nc(N2CC3(C2)SCc2sc(N)c(C#N)c23)n1)C(C)c1nonc1N` (stereo partly drawn) [Compound 171, 2-amino-1′-[4-[1-(4-amino-1,2,5-oxadiazol-3-yl)ethyl-ethyl-amino]-6-[[(2R,8S)-2-fluoro-1,2,3,5,6,7-hexahydropyrrolizin-8-yl]methoxy]-1,3,5-triazin-2-yl]spiro[6H-thieno[2,3-c]thiophene-4,3′-azetidine]-3-carbonitrile], the IC50 is 10 to 100 nM in assay [1], < 10 nM in assay [2], 10 to 100 nM in assay [3] and < 10 nM in assay [4].
Consider `C[C@H](c1cccnc1N)N(C)c1nc(OC[C@@]23CCCN2C[C@H](F)C3)nc(N2CC(C)(c3csc(N)c3C#N)C2)n1` [Compound 172, 2-amino-4-[1-[4-[[(1R)-1-(2-amino-3-pyridyl)ethyl]-methyl-amino]-6-[[(2R,8S)-2-fluoro-1,2,3,5,6,7-hexahydropyrrolizin-8-yl]methoxy]-1,3,5-triazin-2-yl]-3-methyl-azetidin-3-yl]thiophene-3-carbonitrile], for which the half-inhibitory concentration (IC50) in assay [1] is < 10 nM; in assay [2] it was < 10 nM; in assay [3], 100 to 1000 nM; in assay [4] it was 10 to 100 nM.
Take `CCN(c1nc(OC[C@@]23CCCN2C[C@H](F)C3)nc(N2CC3(CCc4sc(N)c(C#N)c43)C2)n1)[C@H](C)c1cccnc1N` [Compound 173, 2-amino-1′-[4-[[(1R)-1-(2-amino-3-pyridyl)ethyl]-ethyl-amino]-6-[[(2R,8S)-2-fluoro-1,2,3,5,6,7-hexahydropyrrolizin-8-yl]methoxy]-1,3,5-triazin-2-yl]spiro[5,6-dihydrocyclopenta[b]thiophene-4,3′-azetidine]-3-carbonitrile]: the half-maximal inhibitory concentration (IC50) in assay [1], in assay [2], in assay [3] and in assay [4] was < 10 nM each time.
In the case of `CC(c1nsnc1N)N(C)c1nc(OC[C@@]23CCCN2C[C@H](F)C3)nc(N2CC3(C2)SCc2sc(N)c(C#N)c23)n1` (stereo partly drawn) [Compound 174, 2-amino-1′-[4-[1-(4-amino-1,2,5-thiadiazol-3-yl)ethyl-methyl-amino]-6-[[(2R,8S)-2-fluoro-1,2,3,5,6,7-hexahydropyrrolizin-8-yl]methoxy]-1,3,5-triazin-2-yl]spiro[6H-thieno[2,3-c]thiophene-4,3′-azetidine]-3-carbonitrile], the IC50 in assay [1] was < 10 nM; in assay [2] it was < 10 nM; in assay [3] it was 10 to 100 nM; in assay [4], < 10 nM.
As to `CCN(c1nc(OC[C@@H]2CC(F)(F)CN2C)nc(N2CC3(C2)SCc2sc(N)c(C#N)c23)n1)[C@H](C)c1cccnc1N` [Compound 176, 2-amino-1′-[4-[[(1R)-1-(2-amino-3-pyridyl)ethyl]-ethyl-amino]-6-[[(2S)-4,4-difluoro-1-methyl-pyrrolidin-2-yl]methoxy]-1,3,5-triazin-2-yl]spiro[6H-thieno[3,4-b]thiophene-4,3′-azetidine]-3-carbonitrile], the IC50 is 100 to 1000 nM in assay [1], < 10 nM in assay [2], 1000 to 20000 nM in assay [3] and 10 to 100 nM in assay [4].
For `CCN(c1nc(OCC(C)N(C)C)nc(N2CC3(C2)SCc2sc(N)c(C#N)c23)n1)[C@H](C)c1cccnc1N` (stereo partly drawn) [Compound 177, 2-amino-1′-[4-[[(1R)-1-(2-amino-3-pyridyl)ethyl]-ethyl-amino]-6-[2-(dimethylamino)propoxy]-1,3,5-triazin-2-yl]spiro[6H-thieno[3,4-b]thiophene-4,3′-azetidine]-3-carbonitrile], in that order: 10 to 100 nM, < 10 nM, 100 to 1000 nM and 100 to 1000 nM.
Turning to `CCN(c1nc(OCCN2CCCCC2)nc(N2CC3(C2)SCc2sc(N)c(C#N)c23)n1)[C@H](C)c1cccnc1N` [Compound 178, 2-amino-1′-[4-[[(1R)-1-(2-amino-3-pyridyl)ethyl]-ethyl-amino]-6-[2-(1-piperidyl)ethoxy]-1,3,5-triazin-2-yl]spiro[6H-thieno[3,4-b]thiophene-4,3′-azetidine]-3-carbonitrile], the half-maximal inhibitory concentration (IC50) in assay [1] is 10 to 100 nM; in assay [2], < 10 nM; in assay [3], 100 to 1000 nM; in assay [4], 10 to 100 nM.
Turning to `CN(Cc1c(F)ccnc1N)c1nc(OC[C@@]23CCCN2C[C@H](F)C3)nc(N2CC3(C2)SCc2sc(N)c(C#N)c23)n1` [Compound 179, 2-amino-1′-[4-[(2-amino-4-fluoro-3-pyridyl)methyl-methyl-amino]-6-[[(2R,8S)-2-fluoro-1,2,3,5,6,7-hexahydropyrrolizin-8-yl]methoxy]-1,3,5-triazin-2-yl]spiro[6H-thieno[2,3-c]thiophene-4,3′-azetidine]-3-carbonitrile], the concentration for half-maximal inhibition (IC50) was 10 to 100 nM in assay [1], < 10 nM in assay [2], 100 to 1000 nM in assay [3] and 10 to 100 nM in assay [4].

Values taken from patent US12421254B2, “KRAS modulators and uses thereof” (Quanta Therapeutics, Inc., priority 2023, dated 2025).
